Test results: patent publication US20140235445A1, “PESTICIDE COMPOSITIONS INCLUDING POLYMERIC ADJUVANTS” (priority 2009, published 2014)

Test system: fire ants
Assay: fire ant kill test: time to death of all fire ants in a jar coated with dried insecticide composition
Assay type: in vivo
Description: In this example a series of commercially available insecticides were tested at various dilution levels and with and without a preferred copolymer, namely the AVAIL® copolymer previously described (a 40%-60% w/w aqueous composition of a saturated sodium salt of a maleic anhydride/itaconic acid copolymer in water). In each set of test runs, the selected insecticide was tested with a population of fire ants in order to determine the time required to kill the entire population.
In particular, in each test run 20 ml of the respective liquid insecticide composition was added to a mason jar and swirled around the inside bottom thereof. The liquid was then poured off and the remainder was allowed to dry on the inner jar surface, creating substantially a monomeric dried layer. The outside neck surface of the jar was then coated in talc, and the open end of the jar was placed into a fire ant nest. The talc coating prevented the aggressive fire ants from climbing the outer surface of the jar. A population of fire ants was thus established in each jar, and the jar was then topped with an apertured mason jar cap. The time to death of all of the fire ants was then recorded.
In each case, the recommended concentration of insecticide was prepared (recorded as “1×”), followed by dilutions with water to create the diluted compositions. Where copolymer was used, the copolymer was added to the insecticide with gentle mixing, at a level of 30 ml per gallon. If desired, lesser amounts of copolymer could be used, e.g., 20 ml per gallon.
In another series of tests, insecticides were tested with various copolymers having different ratios of maleic anhydride and itaconic acid moieties, and at different pH levels. In particular, respective copolymeric compositions were prepared made up ofpolymaleic acid, a 1:3 weight ratio of maleic anhydride to itaconic acid, a 1:1 weight ratio of maleic anhydride to itaconic acid, a 3:1 weight ratio of maleic anhydride to itaconic acid, and a 7:1 weight ratio of maleic anhydride to itaconic acid. Individual portions of each of these copolymers were then pH-modified using sodium hydroxide to provide, for each copolymer, portions with no pH adjustment, and with adjustment to pHs of 6, 7, and 8. These pH-modified test copolymers were then mixed with a 1/100× dilution of malathion at a level of 30 ml of copolymer per gallon of insecticide. Similarly, the same pH-adjusted copolymers were mixed with 1/20× water dilutions of permethrin, again at a level of 30 ml of copolymer per gallon of insecticide.
The test products were then used in the same fire ant kill experiment of Example 1, giving the data of Tables 2 and 3.

[1] = Table 1, insecticide at 1/20X dilution, copolymer, where used, 30 ml per gallon
[2] = Table 1, insecticide at 1/10X dilution
[3] = Table 1, insecticide at 1X (recommended concentration), time to kill entire fire ant population

Cc1c(COC(=O)[C@H]2[C@@H](/C=C(\Cl)C(F)(F)F)C2(C)C)cccc1-c1ccccc1 (stereo in doubt) [bifenthrin, (2-methyl-3-phenylphenyl) methyl (1S,3S)-3-[(Z)-2-chloro-3,3,3-trifluoroprop-1-enyl]-2,2-dimethylcyclopropane-1-carboxylate] was tested, and the “TIME TO DEATH” value [1] was 15 min.

With CCOP(=S)(OCC)Oc1cc(C)nc(C(C)C)n1 [Diazinon®] the “effect of the copolymer on kill time as compared with the insecticide itself” value (insecticide with copolymer vs insecticide alone) was “no decrease in kill times”.

With CCOC(=O)CC(SP(=S)(OC)OC)C(=O)OCC (centres unmarked) [malathion, 2-(dimethoxyphosphinothioylthio) butanedioic acid diethyl ester] the “TIME TO DEATH” value [2] was 2 min, the “TIME TO DEATH” value [1] was 5 min and the “TIME TO DEATH” value (Table 1, insecticide at 1/100X dilution, copolymer, where used, 30 ml per gallon) was 30 min. For the same compound, the “TIME TO DEATH” value [3] was 1 min and the “TIME TO DEATH” value (Table 2, 1/100X malathion, copolymer 30 ml per gallon, no pH adjustment (pH —)) was 14 min.

With CC1(C)C(C=C(Cl)Cl)C1C(=O)OCc1cccc(Oc2ccccc2)c1 (centres unmarked) [permethrin, (3-phenoxyphenyl) methyl 3-(2,2-dichloroethenyl)-2,2-dimethyl-cyclopropane-1-carboxylate] the “TIME TO DEATH” value [2] was 5 min, the “TIME TO DEATH” value [1] was 20 min and the “TIME TO DEATH” value [3] was 5 min. The “TIME TO DEATH” value (Table 1, insecticide at ⅓X dilution) was 5 min.
